Measurements published in ChEMBL document CHEMBL2413072, “Synthesis and in vitro anticancer studies of novel C-2 arylidene congeners of lantadenes” (2013).

Legend:
Type in all cases: functional
CAKI-1 [1] = experiment: Growth inhibition of human CAKI-1 cells assessed as cell growth at 10^-6 M by sulforhodamine B assay; details: read-out: Activity
[2] = Growth inhibition of human Hs 578T cells assessed as cell growth at 10^-7 M by sulforhodamine B assay; details: read-out: Activity
HL-60(TB) = experiment: Growth inhibition of human HL-60(TB) cells assessed as cell growth at 10^-8 M by sulforhodamine B assay; details: read-out: Activity
[3] = Growth inhibition of human HCC2998 cells by sulforhodamine B assay
SNB-75 = experiment: Growth inhibition of human SNB75 cells assessed as cell growth at 10^-6 M by sulforhodamine B assay; details: read-out: Activity
NCI-H23 = experiment: Growth inhibition of human NCI-H23 cells assessed as cell growth at 10^-8 M by sulforhodamine B assay; details: read-out: Activity
PC-3 = experiment: Growth inhibition of human PC3 cells assessed as cell growth at 10^-4 M by sulforhodamine B assay; details: read-out: Activity
UACC-62 [4] = experiment: Growth inhibition of human UACC62 cells assessed as cell growth at 10^-6 M by sulforhodamine B assay; details: read-out: Activity
UO-31 [5] = experiment: Growth inhibition of human UO31 cells by sulforhodamine B assay
SF-539 = experiment: Growth inhibition of human SF539 cells by sulforhodamine B assay
HCT-116 = experiment: Growth inhibition of human HCT116 cells by sulforhodamine B assay
A549 = experiment: Growth inhibition of human A549/ATCC cells assessed as cell growth at 10^-7 M by sulforhodamine B assay; details: read-out: Activity
ACHN [6] = experiment: Growth inhibition of human ACHN cells assessed as cell growth at 10^-4 M by sulforhodamine B assay; details: read-out: Activity
NCI-H226 = experiment: Growth inhibition of human NCI-H226 cells assessed as cell growth at 10^-6 M by sulforhodamine B assay; details: read-out: Activity
SN12C = experiment: Growth inhibition of human SN12C cells assessed as cell growth at 10^-7 M by sulforhodamine B assay; details: read-out: Activity
IGROV-1 [7] = experiment: Growth inhibition of human IGROV1 cells assessed as cell growth at 10^-8 M by sulforhodamine B assay; details: read-out: Activity
ACHN [8] = experiment: Growth inhibition of human ACHN cells assessed as cell growth at 10^-8 M by sulforhodamine B assay; details: read-out: Activity
SF-295 = experiment: Growth inhibition of human SF295 cells by sulforhodamine B assay
OVCAR-3 = experiment: Growth inhibition of human OVCAR3 cells by sulforhodamine B assay
HOP-62 [9] = experiment: Growth inhibition of human HOP62 cells by sulforhodamine B assay
IGROV-1 [10] = experiment: Growth inhibition of human IGROV1 cells assessed as cell growth at 10^-4 M by sulforhodamine B assay; details: read-out: Activity
SF-268 = experiment: Growth inhibition of human SF268 cells by sulforhodamine B assay
IGROV-1 [11] = experiment: Growth inhibition of human IGROV1 cells by sulforhodamine B assay
SK-MEL-5 [12] = experiment: Growth inhibition of human SK-MEL-5 cells assessed as cell growth at 10^-6 M by sulforhodamine B assay; details: read-out: Activity
UACC-62 [13] = experiment: Growth inhibition of human UACC62 cells by sulforhodamine B assay
MDA-MB-231 = experiment: Growth inhibition of human MDA-MB-231 cells assessed as cell growth at 10^-4 M by sulforhodamine B assay; details: read-out: Activity
UO-31 [14] = experiment: Growth inhibition of human UO31 cells assessed as cell growth at 10^-8 M by sulforhodamine B assay; details: read-out: Activity
RXF 393 = experiment: Growth inhibition of human RXF393 cells assessed as cell growth at 10^-4 M by sulforhodamine B assay; details: read-out: Activity
NCI-H522 = experiment: Growth inhibition of human NCI-H522 cells assessed as cell growth at 10^-8 M by sulforhodamine B assay; details: read-out: Activity
HOP-62 [15] = experiment: Growth inhibition of human HOP62 cells assessed as cell growth at 10^-6 M by sulforhodamine B assay; details: read-out: Activity
CAKI-1 [16] = experiment: Growth inhibition of human CAKI-1 cells assessed as cell growth at 10^-7 M by sulforhodamine B assay; details: read-out: Activity
M14 = experiment: Growth inhibition of human M14 cells assessed as cell growth at 10^-6 M by sulforhodamine B assay; details: read-out: Activity
COLO 205 = experiment: Growth inhibition of human COLO205 cells assessed as cell growth at 10^-6 M by sulforhodamine B assay; details: read-out: Activity
SK-MEL-2 = experiment: Growth inhibition of human SK-MEL-2 cells assessed as cell growth at 10^-4 M by sulforhodamine B assay; details: read-out: Activity
LOX IMVI = experiment: Growth inhibition of human LOXIMVI cells by sulforhodamine B assay
SK-MEL-5 [17] = experiment: Growth inhibition of human SK-MEL-5 cells assessed as cell growth at 10^-8 M by sulforhodamine B assay; details: read-out: Activity
SNB-19 = experiment: Growth inhibition of human SNB19 cells assessed as cell growth at 10^-4 M by sulforhodamine B assay; details: read-out: Activity
[18] = read-out: LC50 (the source's name)
[19] = read-out: pLC50 (the source's name) (converted)

`C/C=C(/C)C(=O)O[C@@H]1CC(C)(C)C[C@H]2C3=CC[C@@H]4[C@@]5(C)CC[C@H](O)C(C)(C)[C@@H]5CC[C@@]4(C)[C@]3(C)CC[C@@]12C(=O)O` [Reduced Lantadene A] gave a growth at 1 µM (CAKI-1 [1]) of 85%, a growth at 0.1 µM [2] of 91% and a growth at 0.01 µM (HL-60(TB)) of 106%. For the same compound, the GI50 ([3]; HCC 2998, read-out: GI50) was 1.88 µM, the CC50 ([3]; HCC 2998, read-out: LC50 (the source's name)) was 6.43 µM and the TGI ([3]; HCC 2998, read-out: TGI) was 3.47 µM. It also gave a GI50 ([3]; HCC 2998, read-out: pGI50 (converted)) of 1.86 µM, a CC50 ([3]; HCC 2998, read-out: pLC50 (the source's name) (converted)) of 6.46 µM and a TGI ([3]; HCC 2998, read-out: pTGI (converted)) of 3.47 µM. The growth at 1 µM (SNB-75) was 76%, the growth at 0.01 µM (NCI-H23) was 101% and the growth at 100 µM (PC-3) was -73%. It also gave a growth at 1 µM (UACC-62 [4]) of 78%, a GI50 (UO-31 [5]; read-out: GI50) of 1.64 µM and a CC50 (UO-31 [5]; [18]) of 5.91 µM. It also gave a TGI (UO-31 [5]; read-out: TGI) of 3.12 µM, a GI50 (UO-31 [5]; read-out: pGI50 (converted)) of 1.66 µM and a CC50 (UO-31 [5]; [19]) of 5.89 µM. For the same compound, the TGI (UO-31 [5]; read-out: pTGI (converted)) was 3.09 µM, the GI50 (SF-539; read-out: GI50) was 3.37 µM and the CC50 (SF-539; [18]) was 56.3 µM. For the same compound, the TGI (SF-539; read-out: TGI) was 11.4 µM, the GI50 (SF-539; read-out: pGI50 (converted)) was 3.39 µM and the CC50 (SF-539; [19]) was 56.2 µM. It also gave a TGI (SF-539; read-out: pTGI (converted)) of 11.5 µM, a GI50 (HCT-116; read-out: GI50) of 2.45 µM and an LC50 (HCT-116; read-out: LC50) of 65 µM. The TGI (HCT-116; read-out: TGI) was 10.1 µM, the GI50 (HCT-116; read-out: pGI50 (converted)) was 2.45 µM and the LC50 (HCT-116; read-out: pLC50 (converted)) was 64.6 µM. For the same compound, the TGI (HCT-116; read-out: pTGI (converted)) was 10.2 µM, the growth at 0.1 µM (A549) was 90% and the growth at 100 µM (ACHN [6]) was -69%. It also gave a growth at 1 µM (NCI-H226) of 83%, a growth at 0.1 µM (SN12C) of 92% and a growth at 0.01 µM (IGROV-1 [7]) of 109%. It also gave a growth at 0.01 µM (ACHN [8]) of 105%, a GI50 (SF-295; read-out: GI50) of 1.62 µM and a CC50 (SF-295; [18]) of 7.74 µM. For the same compound, the TGI (SF-295; read-out: TGI) was 3.54 µM, the GI50 (SF-295; read-out: pGI50 (converted)) was 1.62 µM and the CC50 (SF-295; [19]) was 7.76 µM. The TGI (SF-295; read-out: pTGI (converted)) was 3.55 µM, the GI50 (OVCAR-3; read-out: GI50) was 1.95 µM and the TGI (OVCAR-3; read-out: TGI) was 3.61 µM. It also gave a GI50 (OVCAR-3; read-out: pGI50 (converted)) of 1.95 µM, a TGI (OVCAR-3; read-out: pTGI (converted)) of 3.63 µM and a GI50 (HOP-62 [9]; read-out: GI50) of 1.87 µM. For the same compound, the TGI (HOP-62 [9]; read-out: TGI) was 3.55 µM, the GI50 (HOP-62 [9]; read-out: pGI50 (converted)) was 1.86 µM and the TGI (HOP-62 [9]; read-out: pTGI (converted)) was 3.55 µM. For the same compound, the growth at 100 µM (IGROV-1 [10]) was -58%, the GI50 (SF-268; read-out: GI50) was 2.16 µM and the TGI (SF-268; read-out: TGI) was 4.42 µM. For the same compound, the GI50 (SF-268; read-out: pGI50 (converted)) was 2.14 µM, the TGI (SF-268; read-out: pTGI (converted)) was 4.47 µM and the GI50 (IGROV-1 [11]; read-out: GI50) was 2.32 µM. The CC50 (IGROV-1 [11]; [18]) was 9.24 µM, the TGI (IGROV-1 [11]; read-out: TGI) was 4.63 µM and the GI50 (IGROV-1 [11]; read-out: pGI50 (converted)) was 2.29 µM. It also gave a CC50 (IGROV-1 [11]; [19]) of 9.33 µM, a TGI (IGROV-1 [11]; read-out: pTGI (converted)) of 4.68 µM and a growth at 1 µM (SK-MEL-5 [12]) of 83%. The GI50 (UACC-62 [13]; read-out: GI50) was 1.56 µM, the CC50 (UACC-62 [13]; [18]) was 7.83 µM and the TGI (UACC-62 [13]; read-out: TGI) was 3.5 µM. For the same compound, the GI50 (UACC-62 [13]; read-out: pGI50 (converted)) was 1.55 µM, the CC50 (UACC-62 [13]; [19]) was 7.76 µM and the TGI (UACC-62 [13]; read-out: pTGI (converted)) was 3.47 µM. For the same compound, the growth at 100 µM (MDA-MB-231) was -63%, the growth at 0.01 µM (UO-31 [14]) was 93% and the growth at 100 µM (RXF 393) was -76%. The growth at 0.01 µM (NCI-H522) was 102%, the growth at 1 µM (HOP-62 [15]) was 99% and the growth at 0.1 µM (CAKI-1 [16]) was 96%. It also gave a growth at 1 µM (M14) of 89%, a growth at 1 µM (COLO 205) of 104% and a growth at 100 µM (SK-MEL-2) of -71%. For the same compound, the GI50 (LOX IMVI; read-out: GI50) was 3.39 µM, the CC50 (LOX IMVI; [18]) was 66.8 µM and the TGI (LOX IMVI; read-out: TGI) was 13 µM. It also gave a GI50 (LOX IMVI; read-out: pGI50 (converted)) of 3.39 µM, a CC50 (LOX IMVI; [19]) of 66.1 µM and a TGI (LOX IMVI; read-out: pTGI (converted)) of 12.9 µM. For the same compound, the growth at 0.01 µM (SK-MEL-5 [17]) was 95% and the growth at 100 µM (SNB-19) was -40%.
